Measured values from US20240238423A9, “TETRAHYDROISOQUINOLINE HETEROBIFUNCTIONAL BCL-XL DEGRADERS” (Treeline Biosciences, Inc., priority 2022, published 2024).
Where two headings read alike, the source gives them in different places.

Target: T1, Human BCL-XL protein (N-terminal HiBiT tagged BCL-XL in HT1080 cells) (Homo sapiens, UniProt Q07817)
T1 construct: expressed in transfected cells; host or cells: HT-1080 (ATCC CCL-121), stably transduced with lentivirus pLV-UBC-N-HiBiT-BCL-XL-PGK-puro and selected with puromycin
T1 sequence (Q07817 whole entry): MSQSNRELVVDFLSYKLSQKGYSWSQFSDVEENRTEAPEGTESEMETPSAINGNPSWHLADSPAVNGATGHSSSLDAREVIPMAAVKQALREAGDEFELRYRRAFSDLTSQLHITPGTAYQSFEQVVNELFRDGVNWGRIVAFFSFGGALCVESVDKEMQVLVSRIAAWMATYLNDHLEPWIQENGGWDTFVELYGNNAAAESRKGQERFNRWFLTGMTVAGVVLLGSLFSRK
Assay: HiBiT based degradation assay
Assay type: cell-based
Settings: HT1080 cells expressing HiBiT-BCL-XL; for Ymin (24 h) / Ymin (6 h): BCL-XL degradation normalized with DMSO control; for DC50: BCL-XL degradation
How it was run: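 This HiBiT degradation assay measured loss of BCL-XL in HT1080 cells that stably express an N-terminal HiBiT-BCL-XL fusion delivered by lentivirus. Cells were added to compound-spotted 384-well plates, and luminescence was read on a PHERAstar FSX reader. Signal was expressed relative to DMSO controls, curves were fitted by four-parameter logistic regression, and for hook-shaped curves the Ymin point served as the bottom plateau when calculating EC50.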

Question: For `Cc1c(OCCC2CCN(CCN3CCC(c4cccc5c(C6CCC(=O)NC6=O)nn(C)c45)CC3)CC2)cccc1-c1ccc(N2CCc3cccc(C(=O)Nc4nc5ccccc5s4)c3C2)nc1C(=O)O` (centres unmarked) [Compound 249, 6-[8-(1,3-benzothiazol-2-ylcarbamoyl)-3,4-dihydro-1H-isoquinolin-2-yl]-3-[3-[2-[1-[2-[4-[3-(2,6-dioxo-3-piperidyl)-1-methyl-indazol-7-yl]-1-piperidyl]ethyl]-4-piperidyl]ethoxy]-2-methyl-phenyl] pyridine-2-carboxylic acid], which “Ymin (24 h)” value (24 h) is on record?
Answer: A (Ymin < 50%)

Question: And the DC50 (24 h, read-out: EC50 (24 h))?
Answer: < 0.1 µM

Question: For `Cc1c(O[C@H]2CC[C@H](CCCN3CCN(c4cccc5c(C6CCC(=O)NC6=O)nn(C)c45)[C@@H](C)C3)CC2)cccc1-c1ccc(N2CCc3cccc(C(=O)Nc4nc5ccccc5s4)c3C2)nc1C(=O)O` (stereo partly drawn) [Compound 274b, 6-(8-(benzo[d]thiazol-2-ylcarbamoyl)-3,4-dihydroisoquinolin-2(1H)-yl)-3-(3-(((1R,4r)-4-(3-((3S)-4-(3-(2,6-dioxopiperidin-3-yl)-1-methyl-1H-indazol-7-yl)-3-methylpiperazin-1-yl)propyl)cyclohexyl)oxy)-2-methylphenyl)picolinic acid], which “Ymin (24 h)” value (24 h) is on record?
Answer: A (Ymin < 50%)

Question: And the DC50 (24 h, read-out: EC50 (24 h))?
Answer: < 0.1 µM

Question: What does the source list for `Cc1cc(OCCC[C@@H]2CCN(CC(=O)Nc3ccc4c(C5CCC(=O)NC5=O)nn(C)c4c3)[C@H](C)C2)ccc1-c1ccc(N2CCc3cccc(C(=O)Nc4nc5ccccc5s4)c3C2)nc1C(=O)O` (stereo partly drawn) [Compound 344b, 6-[8-(1,3-benzothiazol-2-ylcarbamoyl)-3,4-dihydro-1H-isoquinolin-2-yl]-3-[4-[3-[(2R,4R)-1-[2-[[3-(2,6-dioxo-3-piperidyl)-1-methyl-indazol-6-yl]amino]-2-oxo-ethyl]-2-methyl-4-piperidyl]propoxy]-2-methyl-phenyl]pyridine-2-carboxylic acid]?
Answer: Ymin (24 h): A (Ymin < 50%); DC50 (24 h, read-out: EC50 (24 h)): < 0.1 µM

Question: Which results are given for `Cc1c(OCCCN2CCN(CC(=O)Nc3ccc4c(C5CCC(=O)NC5=O)nn(C)c4c3)CC2)cccc1-c1ccc(N2CCc3cccc(C(=O)Nc4nc5ccccc5s4)c3C2)nc1C(=O)O` (centres unmarked) [Compound 104, 6-[8-(1,3-benzothiazol-2-ylcarbamoyl)-3,4-dihydro-1H-isoquinolin-2-yl]-3-[3-[3-[4-[2-[[3-(2,6-dioxo-3-piperidyl)-1-methyl-indazol-6-yl]amino]-2-oxo-ethyl]piperazin-1-yl]propoxy]-2-methyl-phenyl]pyridine-2-carboxylic acid]?
Answer: Ymin (6 h): B (50% ≤ Ymin < 70%); Ymin (24 h): A (Ymin < 50%); DC50 (6 h, read-out: EC50 (6 h)): < 0.1 µM; DC50 (24 h, read-out: EC50 (24 h)): < 0.1 µM

Question: How did the “Ymin (24 h)” value (24 h) turn out when `Cc1c(OCCC[C@@H]2CCN(CC(=O)Nc3ccc4c(C5CCC(=O)NC5=O)nn(C)c4c3)[C@@H](C)C2)cccc1-c1ccc(N2CCc3cccc(C(=O)Nc4nc5ccccc5s4)c3C2)nc1C(=O)O` (stereo partly drawn) [Compound 343c, 6-(8-(benzo[d]thiazol-2-ylcarbamoyl)-3,4-dihydroisoquinolin-2(1H)-yl)-3-(3-(3-((2S,4R)-1-(2-((3-(2,6-dioxopiperidin-3-yl)-1-methyl-1H-indazol-6-yl)amino)-2-oxoethyl)-2-methylpiperidin-4-yl)propoxy)-2-methylphenyl)picolinic acid] was run?
Answer: A (Ymin < 50%)

Question: And the DC50 (24 h, read-out: EC50 (24 h))?
Answer: < 0.1 µM

Question: How did the “Ymin (6 h)” value (6 h) turn out when `Cc1cc(OCCCN2CCN(CC(=O)Nc3cccc4c(C5CCC(=O)NC5=O)nn(C)c34)CC2)ccc1-c1ccc(N2CCc3cccc(C(=O)Nc4nc5ccccc5s4)c3C2)nc1C(=O)O` (centres unmarked) [Compound 242, 6-[8-(1,3-benzothiazol-2-ylcarbamoyl)-3,4-dihydro-1H-isoquinolin-2-yl]-3-[4-[3-[4-[2-[[3-(2,6-dioxo-3-piperidyl)-1-methyl-indazol-7-yl]amino]-2-oxo-ethyl]piperazin-1-yl]propoxy]-2-methyl-phenyl]pyridine-2-carboxylic acid] was run?
Answer: C (Ymin ≥ 70%)

Question: What about the “Ymin (24 h)” value (24 h) of the same molecule?
Answer: C (Ymin ≥ 70%)

Question: What about the DC50 (6 h, read-out: EC50 (6 h)) of the same molecule?
Answer: 1 to 10 µM

Question: And the DC50 (24 h, read-out: EC50 (24 h))?
Answer: < 0.1 µM

Question: Which “Ymin (24 h)” value (24 h) does the source give for `Cc1c(OCCC2CC3(C2)CN(CC(=O)Nc2ccc4c(C5CCC(=O)NC5=O)nn(C)c4c2)C3)cccc1-c1ccc(N2CCc3cccc(C(=O)Nc4nc5ccccc5s4)c3C2)nc1C(=O)O` (centres unmarked) [Compound 277, 6-(8-(benzo[d]thiazol-2-ylcarbamoyl)-3,4-dihydroisoquinolin-2(1H)-yl)-3-(3-(2-(2-(2-((3-(2,6-dioxopiperidin-3-yl)-1-methyl-1H-indazol-6-yl)amino)-2-oxoethyl)-2-azaspiro[3.3]heptan-6-yl)ethoxy)-2-methylphenyl)picolinic acid] here?
Answer: A (Ymin < 50%)

Question: What about the DC50 (24 h, read-out: EC50 (24 h)) of the same molecule?
Answer: < 0.1 µM

Question: Which “Ymin (24 h)” value (24 h) does the source give for `Cc1c(O[C@H]2CC[C@H](CCCCN3CCN(c4ccc5c(C6CCC(=O)NC6=O)nn(C)c5c4)C[C@H]3C(F)(F)F)CC2)cccc1-c1ccc(N2CCc3cccc(C(=O)Nc4nc5ccccc5s4)c3C2)nc1C(=O)O` (stereo partly drawn) [Compound 346b, 6-(8-(benzo[d]thiazol-2-ylcarbamoyl)-3,4-dihydroisoquinolin-2(1H)-yl)-3-(3-(((1r,4r)-4-(4-((2S)-4-(3-(2,6-dioxopiperidin-3-yl)-1-methyl-1H-indazol-6-yl)-2-(trifluoromethyl)piperazin-1-yl)butyl)cyclohexyl)oxy)-2-methylphenyl)picolinic acid] here?
Answer: A (Ymin < 50%)

Question: And the DC50 (24 h, read-out: EC50 (24 h))?
Answer: < 0.1 µM

Question: `Cc1c(OC[C@H](C)CC2CCN(CC(=O)Nc3ccc4c(C5CCC(=O)NC5=O)nn(C)c4c3)CC2)cccc1-c1ccc(N2CCc3cccc(C(=O)Nc4nc5ccccc5s4)c3C2)nc1C(=O)O` (single isomer, unassigned) [Compound 263a] was tested. Which “Ymin (24 h)” value (24 h) did it give?
Answer: B (50% ≤ Ymin < 70%)

Question: What about the DC50 (24 h, read-out: EC50 (24 h)) of the same molecule?
Answer: < 0.1 µM

Question: How did the “Ymin (24 h)” value (24 h) turn out when `Cc1c(OCCC2CCN(CCC3CCN(c4ccc5c(C6CCC(=O)NC6=O)nn(C)c5c4)CC3)CC2)cccc1-c1ccc(N2CCc3cccc(C(=O)Nc4nc5ccccc5s4)c3C2)nc1C(=O)O` (centres unmarked) [Compound 223, 6-(8-(benzo[d]thiazol-2-ylcarbamoyl)-3,4-dihydroisoquinolin-2(1H)-yl)-3-(3-(2-(1-(2-(1-(3-(2,6-dioxopiperidin-3-yl)-1-methyl-1H-indazol-6-yl)piperidin-4-yl)ethyl)piperidin-4-yl)ethoxy)-2-methylphenyl)picolinic acid] was run?
Answer: A (Ymin < 50%)

Question: And the DC50 (24 h, read-out: EC50 (24 h))?
Answer: < 0.1 µM

Question: How did the “Ymin (24 h)” value (24 h) turn out when `Cc1c(O[C@H]2CC[C@H](CCCN3CCC(c4ccc5c(C6CCC(=O)NC6=O)nn(C)c5c4)CC3)CC2)cccc1-c1ccc(N2CCc3cccc(C(=O)Nc4nc5ccccc5s4)c3C2)nc1C(=O)O` (some centres unmarked) [Compound 269a, 6-(8-(benzo[d]thiazol-2-ylcarbamoyl)-3,4-dihydroisoquinolin-2(1H)-yl)-3-(3-(((1s,4r)-4-(3-(4-(3-(2,6-dioxopiperidin-3-yl)-1-methyl-1H-indazol-6-yl)piperidin-1-yl)propyl)cyclohexyl)oxy)-2-methylphenyl)picolinic acid] was run?
Answer: A (Ymin < 50%)

Question: What about the DC50 (24 h, read-out: EC50 (24 h)) of the same molecule?
Answer: < 0.1 µM

Question: What does the source list for `Cc1c(OCCCCCCCN2CCN(c3cccc4c(C5CCC(=O)NC5=O)nn(C)c34)CC2)cccc1-c1ccc(N2CCc3cccc(C(=O)Nc4nc5ccccc5s4)c3C2)nc1C(=O)O` (centres unmarked) [Compound 206, 6-[8-(1,3-benzothiazol-2-ylcarbamoyl)-3,4-dihydro-1H-isoquinolin-2-yl]-3-[3-[7-[4-[3-(2,6-dioxo-3-piperidyl)-1-methyl-indazol-7-yl]piperazin-1-yl]heptoxy]-2-methyl-phenyl]pyridine-2-carboxylic acid]?
Answer: Ymin (6 h): C (Ymin ≥ 70%); Ymin (24 h): B (50% ≤ Ymin < 70%); DC50 (6 h, read-out: EC50 (6 h)): 1 to 10 µM; DC50 (24 h, read-out: EC50 (24 h)): < 0.1 µM

Question: Which “Ymin (24 h)” value (24 h) does the source give for `Cc1c(O[C@H]2CC[C@H](CCCCN3CC[C@@H](c4cccc5c(C6CCC(=O)NC6=O)nn(C)c45)C3)CC2)cccc1-c1ccc(N2CCc3cccc(C(=O)Nc4nc5ccccc5s4)c3C2)nc1C(=O)O` (single isomer, unassigned) [Compound 321b] here?
Answer: A (Ymin < 50%)

Question: What about the DC50 (24 h, read-out: EC50 (24 h)) of the same molecule?
Answer: < 0.1 µM

Question: `Cn1nc(C2CCC(=O)NC2=O)c2ccc(NC(=O)CN3CCC(CCCOc4cccc(-c5ccc(N6CCc7cccc(C(=O)Nc8nc9ccccc9s8)c7C6)nc5C(=O)O)c4C(F)(F)F)CC3)cc21` (centres unmarked) [Compound 313, 6-[8-(1,3-benzothiazol-2-ylcarbamoyl)-3,4-dihydro-1H-isoquinolin-2-yl]-3-[3-[3-[1-[2-[[3-(2,6-dioxo-3-piperidyl)-1-methyl-indazol-6-yl]amino]-2-oxo-ethyl]-4-piperidyl]propoxy]-2-(trifluoromethyl)phenyl]pyridine-2-carboxylic acid] was tested. Which “Ymin (24 h)” value (24 h) did it give?
Answer: A (Ymin < 50%)

Question: What about the DC50 (24 h, read-out: EC50 (24 h)) of the same molecule?
Answer: < 0.1 µM

Question: `Cc1c(OCCC[C@@H]2CCN(CC(=O)Nc3ccc4c(C5CCC(=O)NC5=O)nn(C)c4c3)[C@H](C)C2)cccc1-c1ccc(N2CCc3cccc(C(=O)Nc4nc5ccccc5s4)c3C2)nc1C(=O)O` (stereo partly drawn) [Compound 343a, 6-(8-(benzo[d]thiazol-2-ylcarbamoyl)-3,4-dihydroisoquinolin-2(1H)-yl)-3-(3-(3-((2R,4R)-1-(2-((3-(2,6-dioxopiperidin-3-yl)-1-methyl-1H-indazol-6-yl)amino)-2-oxoethyl)-2-methylpiperidin-4-yl)propoxy)-2-methylphenyl)picolinic acid] was tested. Which “Ymin (24 h)” value (24 h) did it give?
Answer: A (Ymin < 50%)

Question: What about the DC50 (24 h, read-out: EC50 (24 h)) of the same molecule?
Answer: < 0.1 µM

Question: Which results are given for `Cc1c(O[C@H]2CC[C@H](CC[C@@H](C)N3CCN(c4cccc5c(C6CCC(=O)NC6=O)nn(C)c45)CC3)CC2)cccc1-c1ccc(N2CCc3cccc(C(=O)Nc4nc5ccccc5s4)c3C2)nc1C(=O)O` (single isomer, unassigned) [Compound 283b]?
Answer: Ymin (24 h): A (Ymin < 50%); DC50 (24 h, read-out: EC50 (24 h)): < 0.1 µM
